Results: ChEMBL document CHEMBL1201862, “PubChem BioAssay data set” (2004)
Calls of active or inactive are those of the source.

What was measured:
[1] = biological target: T1, Sentrin-specific protease 8 (Homo sapiens, UniProt Q96LD8); experiment: SENP8 protease inhibitors, SAR follow-up, biochemical, luminescence, set 2 (AID 588601); assay type: functional
T1 sequence (Q96LD8 whole entry): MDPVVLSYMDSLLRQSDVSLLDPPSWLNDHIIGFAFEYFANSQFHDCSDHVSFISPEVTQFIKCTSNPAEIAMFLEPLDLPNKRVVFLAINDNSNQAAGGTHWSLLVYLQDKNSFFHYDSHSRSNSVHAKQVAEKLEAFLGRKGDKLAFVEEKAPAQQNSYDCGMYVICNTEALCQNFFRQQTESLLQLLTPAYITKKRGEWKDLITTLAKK

Caspase-3 [2] = biological target: T2, Caspase-3 (Homo sapiens, UniProt P42574); experiment: caspase-3 inhibitors as off-family protease, SAR follow-up, selectivity assay for SENP protease inhibitor project, biochemical, luminescence, set 2 (AID 588599); assay type: functional
T2 sequence (P42574 whole entry): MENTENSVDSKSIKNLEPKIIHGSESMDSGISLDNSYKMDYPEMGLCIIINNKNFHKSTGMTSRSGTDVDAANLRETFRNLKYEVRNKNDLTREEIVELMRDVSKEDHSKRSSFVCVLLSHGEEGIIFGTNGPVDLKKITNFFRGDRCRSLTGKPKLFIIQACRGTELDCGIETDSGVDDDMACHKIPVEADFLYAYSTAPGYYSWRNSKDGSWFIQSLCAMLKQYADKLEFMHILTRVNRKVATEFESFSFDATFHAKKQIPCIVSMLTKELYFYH

[3] = biological target: T3, Sentrin-specific protease 7 (Homo sapiens, UniProt Q9BQF6); experiment: SENP7 protease inhibitors, SAR follow-up, biochemical, luminescence, set 2 (AID 588600); assay type: functional
T3 sequence (Q9BQF6 whole entry): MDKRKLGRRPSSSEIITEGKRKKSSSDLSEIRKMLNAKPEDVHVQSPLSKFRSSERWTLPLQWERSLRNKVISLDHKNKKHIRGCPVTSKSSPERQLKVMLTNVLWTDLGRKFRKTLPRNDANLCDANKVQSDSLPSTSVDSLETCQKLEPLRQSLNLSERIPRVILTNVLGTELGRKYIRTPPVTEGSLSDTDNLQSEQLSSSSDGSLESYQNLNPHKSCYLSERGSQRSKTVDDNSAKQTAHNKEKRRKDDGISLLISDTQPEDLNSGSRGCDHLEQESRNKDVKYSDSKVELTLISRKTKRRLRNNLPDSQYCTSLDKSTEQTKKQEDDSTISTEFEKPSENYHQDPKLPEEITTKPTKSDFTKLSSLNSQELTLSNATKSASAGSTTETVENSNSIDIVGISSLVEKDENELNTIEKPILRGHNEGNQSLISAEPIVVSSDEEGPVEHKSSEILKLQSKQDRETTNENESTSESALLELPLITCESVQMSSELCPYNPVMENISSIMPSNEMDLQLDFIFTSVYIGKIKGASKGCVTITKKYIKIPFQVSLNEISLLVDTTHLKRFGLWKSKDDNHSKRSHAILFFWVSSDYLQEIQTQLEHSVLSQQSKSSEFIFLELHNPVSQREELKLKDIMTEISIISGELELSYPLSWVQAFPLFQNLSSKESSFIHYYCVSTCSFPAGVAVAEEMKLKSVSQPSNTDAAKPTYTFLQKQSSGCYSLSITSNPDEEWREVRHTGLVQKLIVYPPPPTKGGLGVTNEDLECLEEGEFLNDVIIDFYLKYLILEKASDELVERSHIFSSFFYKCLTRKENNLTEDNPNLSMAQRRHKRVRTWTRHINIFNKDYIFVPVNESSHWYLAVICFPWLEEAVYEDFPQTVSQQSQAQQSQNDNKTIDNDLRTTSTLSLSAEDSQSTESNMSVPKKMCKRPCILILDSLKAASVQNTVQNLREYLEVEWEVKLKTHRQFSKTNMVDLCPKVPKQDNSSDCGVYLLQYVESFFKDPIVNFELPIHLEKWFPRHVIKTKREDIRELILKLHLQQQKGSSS

[4] = biological target: T4, Sentrin-specific protease 6 (Homo sapiens, UniProt Q9GZR1); experiment: SENP6 protease inhibitors, SAR follow-up, biochemical, luminescence, set 2 (AID 588598); assay type: functional
T4 sequence (Q9GZR1 whole entry): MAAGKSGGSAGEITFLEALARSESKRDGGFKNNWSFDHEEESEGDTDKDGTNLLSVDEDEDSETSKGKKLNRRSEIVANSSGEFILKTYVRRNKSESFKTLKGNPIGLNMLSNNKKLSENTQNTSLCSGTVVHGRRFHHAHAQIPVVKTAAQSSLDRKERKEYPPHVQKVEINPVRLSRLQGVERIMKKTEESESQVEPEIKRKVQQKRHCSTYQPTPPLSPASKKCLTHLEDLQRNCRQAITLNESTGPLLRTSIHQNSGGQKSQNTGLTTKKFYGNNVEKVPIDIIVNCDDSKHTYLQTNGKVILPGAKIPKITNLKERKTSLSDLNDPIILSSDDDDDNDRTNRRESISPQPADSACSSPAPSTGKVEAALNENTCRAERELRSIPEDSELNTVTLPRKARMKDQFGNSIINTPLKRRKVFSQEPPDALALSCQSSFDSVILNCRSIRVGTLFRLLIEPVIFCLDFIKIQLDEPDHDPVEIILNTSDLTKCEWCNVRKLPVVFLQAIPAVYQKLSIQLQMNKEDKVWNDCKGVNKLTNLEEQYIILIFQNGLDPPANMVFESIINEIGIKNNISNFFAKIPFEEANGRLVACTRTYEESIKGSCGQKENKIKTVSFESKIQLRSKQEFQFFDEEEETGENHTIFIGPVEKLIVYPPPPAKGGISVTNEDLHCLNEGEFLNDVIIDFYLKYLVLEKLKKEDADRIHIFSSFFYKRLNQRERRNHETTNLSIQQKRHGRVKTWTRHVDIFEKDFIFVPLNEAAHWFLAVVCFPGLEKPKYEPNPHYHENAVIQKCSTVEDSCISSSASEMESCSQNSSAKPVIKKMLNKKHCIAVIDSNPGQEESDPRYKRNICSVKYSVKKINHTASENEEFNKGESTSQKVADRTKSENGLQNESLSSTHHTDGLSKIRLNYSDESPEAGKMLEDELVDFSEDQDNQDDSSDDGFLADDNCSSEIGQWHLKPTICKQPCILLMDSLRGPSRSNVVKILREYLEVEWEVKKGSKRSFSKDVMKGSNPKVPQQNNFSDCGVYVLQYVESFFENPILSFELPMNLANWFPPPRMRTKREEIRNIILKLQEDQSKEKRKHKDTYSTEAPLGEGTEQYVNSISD

[5] = biological target: Beta-2 adrenergic receptor (Homo sapiens, UniProt P07550); experiment: beta2AR agonists driving receptor internalization, dose response, cell-based, FAP fluorogen, flow cytometry, cherry pick 1 (AID 588763); assay type: functional
Caspase-3 [6] = biological target: T2, Caspase-3; experiment: SAR Analysis of small molecule inhibitors of Sentrin-specific proteases (SENPs) using a Caspase-3 Selectivity assay. [Related pubchem assays (depositor defined):AID2540, AID2599, AID434973, AID489001]; assay type: functional
[7] = biological target: T1, Sentrin-specific protease 8; experiment: SENP8 protease inhibitors, SAR follow-up, biochemical, luminescence (AID 504501); assay type: functional
[8] = biological target: T4, Sentrin-specific protease 6; experiment: SAR Analysis of small molecule inhibitors of Sentrin-specific protease 6 (SENP6) using a Luminescent assay. [Related pubchem assays (depositor defined):AID2582, AID2599]; assay type: functional
[9] = biological target: T3, Sentrin-specific protease 7; experiment: SENP7 protease inhibitors, SAR follow-up, biochemical, luminescence (AID 504497); assay type: functional
Jurkat = experiment: SAR Analysis of small molecule inhibitors of T-cell specific antigen receptor-induced NF-kB activation in a Jurkat cell line using a luminescence assay - Set 2. [Related pubchem assays (depositor defined):AID435003, AID435012, AID465]; assay type: functional, cell-based; conditions: Homo sapiens
HEK293 [10] = experiment: cytotoxicity in HEK293T NF-kB-Luc cells, SAR follow-up, cytotoxicity control for NF-kB activator project, cell-based, resazurin fluorescence (AID 493251); assay type: functional; conditions: Homo sapiens
HEK293 [11] = experiment: SAR Analysis of small molecule inhibitors of T-cell specific antigen receptor-induced NF-kB activation in a HEK-293T cell line using a luminescence assay - Set 2. [Related pubchem assays (depositor defined):AID435003, AID435012, AID489026]; assay type: functional, cell-based; conditions: Homo sapiens
SUMO-activating enzyme [12] = biological target: T5, SUMO-activating enzyme (Homo sapiens, UniProt Q9UBT2); experiment: inhibitors of in vitro SUMOylation cascade, primary screen, biochemical, HTRF, uHTS (AID 2006); assay type: protein-complex assay
Albumin = Albumin (Bos taurus, UniProt P02769); experiment: Counterscreen for inhibitors of T-cell receptor (TCR)-CD3 interaction: Fluorescence-based biochemical high throughput dose response assay to identify inhibitors of T-cell receptor (TCR)-CD3 interaction using a TAMRA-labeled BSA probe.; assay type: functional
[13] = AlphaScreen signal interference compounds, dose response, artefact control for ARNT-TACC3 interaction inhibitor project, biochemical, luminescence, cherry-pick (AID 651705); assay type: functional;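 note: AlphaScreen bead proximity signal that flags compounds interfering with the detection technology; potency reflects signal decrease which marks the compound as an assay artifact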
Vero = Vero cell cytotoxicity, cytotoxicity control for flavivirus capping enzyme inhibitors (AID 588742); assay type: functional; conditions: Chlorocebus sabaeus
INS1 = experiment: beta cell apoptosis inhibitors, cytokine rescue, dose response, luminescence, retest (AID 449756); assay type: functional, cell-based; conditions: Rattus norvegicus;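 note: cell death triggered by IL-1 beta plus TNF-alpha plus IFN-gamma mixture; protective hits raise ATP signal compared with cytokine alone wells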
SUMO-activating enzyme [14] = biological target: T5, SUMO-activating enzyme; experiment: SUMOylation inhibitor hit validation, confirmation, SUMOylation inhibitor project, biochemical, AlphaScreen (AID 2018); assay type: functional
Genome polyprotein = Genome polyprotein (dengue virus type 2, UniProt P29990); experiment: Dengue-2 NS5 methyltransferase inhibitors, primary screen, biochemical, confirmation dose response (AID 588689); assay type: functional
[15] = biological target: Eukaryotic translation initiation factor 4E (Mus musculus, UniProt P63073); experiment: eIF4E–eIF4G protein interaction inhibitors, dose response, biochemical, TR-FRET (AID 855); assay type: functional;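 note: potency for disrupting eIF4E binding to eIF4GI seen as loss of FRET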
[16] = NIH-3T3 fibroblast cytotoxicity, dose response, cytotoxicity control, cell-based, fluorescence, Alamar Blue, secondary assay (AID 2327); assay type: functional;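 note: NIH-3T3 mouse fibroblasts cultured with fluconazole at 8 µg/mL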
A-375 = experiment: A375 melanoma cell viability reduction, dose response, counter-screen for MITF modulator project, cherry-pick samples, set 2 (AID 540335); assay type: functional, cell-based; conditions: Homo sapiens
cells [17] = assay type: functional, cell-based
[18] = C. albicans growth with fluconazole, confirmation, fluorescence, retest (AID 2467); assay type: functional, cell-based
cells [19] = assay type: functional, cell-based; remark: listed apart in the source
[20] = biological target: T6, Microphthalmia-associated transcription factor (Homo sapiens, UniProt O75030); experiment: TRPM1 promoter luciferase signal decrease, dose response, MITF inhibitor project, cell-based, SK-MEL-5, cherry-picked, set 3 (AID 493073); assay type: functional
T6 sequence (O75030 whole entry): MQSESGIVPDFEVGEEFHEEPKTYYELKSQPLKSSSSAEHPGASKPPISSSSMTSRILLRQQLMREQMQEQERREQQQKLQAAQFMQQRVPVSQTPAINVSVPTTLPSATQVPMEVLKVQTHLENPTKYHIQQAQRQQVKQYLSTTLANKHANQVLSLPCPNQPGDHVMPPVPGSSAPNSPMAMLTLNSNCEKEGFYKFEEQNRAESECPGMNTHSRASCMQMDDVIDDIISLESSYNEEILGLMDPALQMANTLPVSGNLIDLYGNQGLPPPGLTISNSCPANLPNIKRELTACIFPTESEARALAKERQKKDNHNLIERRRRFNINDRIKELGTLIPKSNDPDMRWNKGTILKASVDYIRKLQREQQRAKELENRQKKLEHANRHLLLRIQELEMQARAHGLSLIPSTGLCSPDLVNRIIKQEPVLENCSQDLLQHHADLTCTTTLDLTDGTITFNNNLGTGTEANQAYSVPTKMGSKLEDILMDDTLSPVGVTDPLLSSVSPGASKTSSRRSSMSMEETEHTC

T5 sequence (Q9UBE0 whole entry): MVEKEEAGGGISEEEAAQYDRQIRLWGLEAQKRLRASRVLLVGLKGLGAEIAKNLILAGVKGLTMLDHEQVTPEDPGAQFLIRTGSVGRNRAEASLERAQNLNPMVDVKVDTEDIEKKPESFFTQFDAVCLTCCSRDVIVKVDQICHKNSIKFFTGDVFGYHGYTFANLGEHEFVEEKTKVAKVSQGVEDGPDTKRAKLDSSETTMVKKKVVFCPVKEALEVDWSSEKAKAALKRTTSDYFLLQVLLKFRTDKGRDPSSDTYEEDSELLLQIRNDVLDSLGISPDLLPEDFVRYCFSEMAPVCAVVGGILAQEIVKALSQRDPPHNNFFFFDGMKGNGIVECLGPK
T5 sequence (Q9UBT2 whole entry): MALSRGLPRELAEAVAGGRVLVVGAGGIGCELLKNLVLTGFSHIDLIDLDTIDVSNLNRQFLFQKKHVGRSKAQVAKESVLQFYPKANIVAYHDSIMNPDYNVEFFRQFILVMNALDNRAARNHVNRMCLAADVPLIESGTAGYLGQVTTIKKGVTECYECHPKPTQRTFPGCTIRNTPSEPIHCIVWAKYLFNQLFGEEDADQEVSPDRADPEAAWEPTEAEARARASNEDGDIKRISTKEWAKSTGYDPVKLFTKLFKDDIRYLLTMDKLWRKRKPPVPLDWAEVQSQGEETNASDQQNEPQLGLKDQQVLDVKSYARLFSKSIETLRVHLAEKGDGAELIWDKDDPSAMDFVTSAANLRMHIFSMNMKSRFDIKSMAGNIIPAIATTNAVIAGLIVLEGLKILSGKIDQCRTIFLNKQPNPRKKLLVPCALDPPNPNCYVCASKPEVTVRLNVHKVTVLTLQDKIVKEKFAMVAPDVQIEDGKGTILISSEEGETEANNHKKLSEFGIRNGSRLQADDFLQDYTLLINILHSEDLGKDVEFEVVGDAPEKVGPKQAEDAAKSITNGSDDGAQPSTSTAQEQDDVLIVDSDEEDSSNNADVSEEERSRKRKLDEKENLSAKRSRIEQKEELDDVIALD
Albumin, sequence (P02769 whole entry): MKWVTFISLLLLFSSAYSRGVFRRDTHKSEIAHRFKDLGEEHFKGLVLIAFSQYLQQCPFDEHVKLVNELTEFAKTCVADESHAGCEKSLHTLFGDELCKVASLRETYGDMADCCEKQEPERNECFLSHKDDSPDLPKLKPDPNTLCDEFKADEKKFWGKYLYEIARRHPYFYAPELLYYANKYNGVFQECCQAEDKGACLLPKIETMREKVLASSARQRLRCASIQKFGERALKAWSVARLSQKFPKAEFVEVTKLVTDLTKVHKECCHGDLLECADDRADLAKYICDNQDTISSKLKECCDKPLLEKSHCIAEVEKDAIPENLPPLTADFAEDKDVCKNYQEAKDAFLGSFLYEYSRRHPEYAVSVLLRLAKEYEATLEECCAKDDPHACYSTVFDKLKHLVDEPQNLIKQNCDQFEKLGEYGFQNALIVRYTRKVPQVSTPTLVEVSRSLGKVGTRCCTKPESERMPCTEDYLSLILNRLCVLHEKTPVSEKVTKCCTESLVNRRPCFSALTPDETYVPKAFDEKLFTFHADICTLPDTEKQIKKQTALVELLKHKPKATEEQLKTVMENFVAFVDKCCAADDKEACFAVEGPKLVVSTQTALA
Eukaryotic translation initiation factor 4E, sequence (P63073 whole entry): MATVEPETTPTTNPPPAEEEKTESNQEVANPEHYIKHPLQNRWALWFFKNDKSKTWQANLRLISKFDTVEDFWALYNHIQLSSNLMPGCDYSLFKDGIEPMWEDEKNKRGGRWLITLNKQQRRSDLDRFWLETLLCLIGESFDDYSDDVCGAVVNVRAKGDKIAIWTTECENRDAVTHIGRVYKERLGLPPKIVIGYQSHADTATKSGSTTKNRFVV
Genome polyprotein, sequence (P29990 2492-3391 limits assumed): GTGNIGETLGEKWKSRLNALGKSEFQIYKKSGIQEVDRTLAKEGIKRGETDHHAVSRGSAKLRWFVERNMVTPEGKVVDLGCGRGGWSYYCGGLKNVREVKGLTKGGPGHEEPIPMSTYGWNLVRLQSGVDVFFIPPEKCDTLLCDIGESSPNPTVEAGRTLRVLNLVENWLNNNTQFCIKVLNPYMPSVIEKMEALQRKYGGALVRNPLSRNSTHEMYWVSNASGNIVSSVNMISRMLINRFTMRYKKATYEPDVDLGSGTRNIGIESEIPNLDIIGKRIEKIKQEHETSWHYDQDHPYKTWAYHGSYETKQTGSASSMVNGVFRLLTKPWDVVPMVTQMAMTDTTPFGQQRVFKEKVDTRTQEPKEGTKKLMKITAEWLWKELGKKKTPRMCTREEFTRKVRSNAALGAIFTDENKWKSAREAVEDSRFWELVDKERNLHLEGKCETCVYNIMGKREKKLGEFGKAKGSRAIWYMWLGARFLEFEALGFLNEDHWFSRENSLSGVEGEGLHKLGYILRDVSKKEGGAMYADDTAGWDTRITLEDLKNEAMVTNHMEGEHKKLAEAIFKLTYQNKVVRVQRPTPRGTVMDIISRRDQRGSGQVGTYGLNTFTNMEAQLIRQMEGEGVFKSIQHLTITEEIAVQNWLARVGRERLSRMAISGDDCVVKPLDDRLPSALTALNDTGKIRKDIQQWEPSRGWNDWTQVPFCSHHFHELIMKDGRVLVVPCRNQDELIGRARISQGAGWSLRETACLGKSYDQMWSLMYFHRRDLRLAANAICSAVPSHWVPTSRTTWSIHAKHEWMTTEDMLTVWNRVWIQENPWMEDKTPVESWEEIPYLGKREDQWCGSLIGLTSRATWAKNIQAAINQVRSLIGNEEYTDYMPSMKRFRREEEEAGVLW
Beta-2 adrenergic receptor, sequence (P07550 whole entry): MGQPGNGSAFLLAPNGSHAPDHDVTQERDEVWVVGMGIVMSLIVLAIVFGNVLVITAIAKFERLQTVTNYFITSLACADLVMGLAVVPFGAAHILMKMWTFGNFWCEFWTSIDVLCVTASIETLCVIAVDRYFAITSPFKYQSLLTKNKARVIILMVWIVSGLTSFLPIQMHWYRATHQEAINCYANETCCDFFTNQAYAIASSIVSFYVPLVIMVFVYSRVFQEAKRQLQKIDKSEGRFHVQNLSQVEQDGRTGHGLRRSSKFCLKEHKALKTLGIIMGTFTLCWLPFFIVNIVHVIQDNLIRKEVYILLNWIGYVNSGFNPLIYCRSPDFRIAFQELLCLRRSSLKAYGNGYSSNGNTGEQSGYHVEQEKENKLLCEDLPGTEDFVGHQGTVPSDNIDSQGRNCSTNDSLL

SMILES: Cc1sc2ncnc(N3CCC(C(=O)Nc4nc5c(F)cc(F)cc5s4)CC3)c2c1C
- IC50 [1]: > 99 µM (inactive)
- IC50 (Caspase-3 [2]): > 99 µM (inactive)
- IC50 [3]: > 99 µM (inactive)
- IC50 [4]: > 99 µM (inactive)

SMILES: CCOCCCNC(=O)c1cc(-c2cccnc2)nc2ccc(S(=O)(=O)N3CCC(C)CC3)cc12
- EC50 [5]: 6.09 µM (inactive)

SMILES: N#Cc1c(NC(=O)c2cc3ncc(Br)cn3n2)sc2c1CCCC2
- IC50 (Caspase-3 [6]): > 99 µM (inactive)
- IC50 [7]: > 99 µM (inactive)
- IC50 [8]: > 99 µM (inactive)
- IC50 [9]: > 99 µM (inactive)

SMILES: CC(C)CC(=O)NC(c1ccccc1)c1ccc2cccnc2c1O (stereo not given)
- IC50 (Jurkat): 4.18 µM (active)
- IC50 (HEK293 [10]): 10.4 µM (active)
- IC50 (HEK293 [11]): 7.19 µM (active)

SMILES: CCS(=O)(=O)c1cccc(C(=O)Nc2nc3ccc(Br)cc3s2)c1
- IC50 (Caspase-3 [6]): > 99 µM (inactive)
- IC50 [7]: > 99 µM (inactive)
- IC50 [8]: > 99 µM (inactive)
- IC50 [9]: > 99 µM (inactive)

SMILES: Cc1ccccc1C(=O)Nc1cccc(C(=O)N/N=C/c2cc(Cl)cc([N+](=O)[O-])c2O)c1
- IC50 (SUMO-activating enzyme [12]): > 100 µM (inactive)
- IC50 (Albumin): > 94.1 µM (inactive)
- AC50 [13]: 95.3 µM (active)
- CC50 (Vero): 33 µM (active)
- AC50 (INS1): 7.14 µM (active)
- IC50 (SUMO-activating enzyme [14]): 6.22 µM (active)
- IC50 (Genome polyprotein): > 100 µM (active)
- IC50 [15]: 50 µM (inactive)

SMILES: O=C(N/N=C\c1cc(Cl)ccc1O)c1ccc(S(=O)(=O)N2CCCCC2)cc1
- EC50 [16]: 63.9 µM (inconclusive)
- AC50 (A-375): 46.3 µM (active)
- AC50 (INS1): 1.01 µM (active)
- EC50 (cells [17]): 265 µM (active)
- EC50 [18]: 0.381 µM (active)
- EC50 (cells [19]): > 350 µM (not active)
- AC50 [20]: 2.81 µM (active)

SMILES: Cc1[nH]c2ccccc2c1C(=O)C(=O)NCc1cccnc1
- IC50 [1]: > 99 µM (inactive)
- IC50 (Caspase-3 [2]): > 99 µM (inactive)
- IC50 [3]: > 99 µM (inactive)
- IC50 [4]: > 99 µM (inactive)
